Test system: intrinsic blood clotting system
Experiment: Determination of the inhibition of contact activation: activated partial thromboplastin time (aPTT) in platelet-poor plasma
Set-up: species or system human
Details: concentration of inhibitor causing twofold prolongation of aPTT; platelet-poor citrate plasma from healthy volunteers; 10 min incubation at 37° C.; PTT reagent (kaolin/cephalin)
Text: The contact activation can be measured by means of a global plasma clotting test, the activated partial thromboplastin time (aPTT), which detects the effect on factors of the intrinsic blood clotting system.
The PTT reagent is a mixture of kaolin suspension, that is “silicates”, which mimic the negatively charged foreign surface, and cephalin, that is phospholipids, which are needed as a surface for the conversion of factor XII into factor XIIa. In the presence of a foreign surface, phospholipid and Ca^2+, factor XII is converted to factor XIIa.
This PTT reagent is added to specially prepared plasma (see examples). The clotting is triggered when the necessary calcium^2+ ions are present, i.e. by addition of a calcium dichloride solution. The time between calcium^2+ addition and the onset of clotting is then measured, and the concentration of inhibitor [in μM] which causes a twofold prolongation of the aPTT is stated.
The contact activation is determined by determination of the partial thromboplastin time. The test principle is as follows: the plasma sample is treated with a mixture of the partial thromboplastin cephalin (phospholipid from rabbit brain) and the surface activator kaolin. The contact activation of the intrinsic clotting system up to fibrin formation is thus set in motion.
For the determination of the partial thromboplastin time, blood from healthy volunteers of both sexes, who had not received any medication affecting clotting within the last ten days, was used. The blood is collected in Monovettes (Sarstedt, Nümbrecht) which contain sodium citrate (1 part citrate+9 parts blood) as anticoagulant. To obtain platelet-poor plasma, the citrate (3.8%) whole blood is centrifuged at 2500 g for 10 min at 4° C. and stored at −20° C. For the determination of the clotting time, aliquots of the platelet-poor plasma (0.1 ml) are incubated with increasing concentrations of test substance or the corresponding solvent for 10 mins at 37° C. Next, the clotting time is determined in accordance with the manufacturer's directions (PTT Reagent®, Roche Diagnostics). For this the procedure is as follows: 0.1 ml of PTT reagent is pipetted into the plasma, and the sample incubated for three minutes at 37° C. The clotting is then triggered in a coagulometer by addition of 0.1 ml of calcium chloride solution and the time to onset of clotting is measured. In this manner, the 2-fold prolongation of the aPTT is determined for selected compounds.

Structure (SMILES) | Twofold prolongation of the aPTT [µM]
O=C(NC[C@H]1CN(c2ccc(N3CCCC3=O)cc2)C(=O)O1)c1ccc(Cl)s1 [Example 17] | 1.8
O=C(NC[C@H]1CN(c2ccc(N3CCOCC3=O)cc2)C(=O)O1)c1ccc(Cl)s1 [Example 44, 5-chloro-N-({(5S)-2-oxo-3-[4-(3-oxo-4-morpholinyl)phenyl]-1,3-oxazolidin-5-yl}methyl)-2-thiophencarboxamide] | 0.69
O=C(NC[C@H]1CN(c2ccc(N3CCCC3=O)cc2)C(=O)O1)c1ccc(Br)s1 [Example 56] | 4.3
O=C(NCC1CN(c2ccc(N3CCOCC3=O)c(F)c2)C(=O)O1)c1ccc(Cl)s1 (centres unmarked) [Example 95] | 0.51
O=C(NCC1CN(c2ccc(N3CCCC3=O)c(C(F)(F)F)c2)C(=O)O1)c1ccc(Cl)s1 (centres unmarked) [Example 112] | 1.6
O=C(NCC1CN(c2ccc(N3CCOCC3=O)c(Cl)c2)C(=O)O1)c1ccc(Cl)s1 (centres unmarked) [Example 113] | 0.55
O=C(NCC1CN(c2ccc(N3CCOCC3=O)c(C(F)(F)F)c2)C(=O)O1)c1ccc(Cl)s1 (centres unmarked) [Example 114] | 2.2
Cc1cc(N2CC(CNC(=O)c3ccc(Cl)s3)OC2=O)ccc1N1CCOCC1=O (centres unmarked) [Example 115] | 1.34
Nc1cc(N2CC(CNC(=O)c3ccc(Cl)s3)OC2=O)ccc1N1CCOCC1=O (centres unmarked) [Example 123] | 1.22
O=C(NC[C@H]1CN(c2ccc(N3CCOCC3=O)c(F)c2)C(=O)O1)c1ccc(Cl)s1 [Example 130a] | 0.4
O=C(NC[C@H]1CN(c2ccc(N3CCCCC3=O)cc2)C(=O)O1)c1ccc(Cl)s1 [Example 162] | 2.5

Source: patent US20100003542A1, “Coating of artificial surfaces of medical aids and instruments, and cleaning and/or pretreatment of catheters and other medical aids and instruments” (BAYER SCHERING PHARMA AKTIENGESSELSCHAFT, priority 2006, published 2010)
